This assay addresses hCereblon(M1-L442)_hDDB1(M1-H1140) (Homo sapiens (Human), UniProt Q96SW2). Briefly: Fluorescence direct binding protocol (tryptophan fluorescence titration). The note with it: 20° C., excited at 280 nm, recorded at 340 nm, assay buffer 50 mM Hepes 7.4 200 mM NaCl; read-out: Fluorescence h-Cereblon_DDB1 Mean Kd_EQ. As for the experimental part: Fluorescence Direct Binding Protocol
Determination of the affinities of compounds to protein containing one or more tryptophan is measurable by monitoring the fluorescence emission in direct mode. The measurements depending on the protein available amounts are performed either manually in a cuvette on ISS-PC1 photon counting spectrofluorometer or automatically in well plates on a fluorescence plate reader device. Fluorescence titrations are performed at 20° C. in the chosen binding assay buffer by using a defined constant protein concentration against ligand concentration variations. Small aliquots of known ligand concentration solubilized in DMSO were added and the fluorescence, excited at 280 nm, was recorded at 340 nm. The fluorescence intensity was corrected for protein dilution and for the filter effect (Birdsall et al.^72).
1) Optimization of measurement parameters to minimize protein consumption and to minimize the dilution effect and the DMSO content
2) Titration measurements of the protein against ligand by at least 12 titration steps to obtain a good s-curve fit
3) Repeat the same titration measurements with the ligand alone to enable correction
4) Check the stability of the protein once by titration against DMSO alone
5) Determination of the molar extinction coefficients of the ligand at 280 and 340 nm with help of an UV-spectrophotometer
6) Use Excel template for the correction of the measured raw data
7) Use GraphPad Prism software for the quadratic binding fit and the KD evaluation.

Sequence of hCereblon(M1-L442)_hDDB1(M1-H1140) (Q96SW2 whole entry): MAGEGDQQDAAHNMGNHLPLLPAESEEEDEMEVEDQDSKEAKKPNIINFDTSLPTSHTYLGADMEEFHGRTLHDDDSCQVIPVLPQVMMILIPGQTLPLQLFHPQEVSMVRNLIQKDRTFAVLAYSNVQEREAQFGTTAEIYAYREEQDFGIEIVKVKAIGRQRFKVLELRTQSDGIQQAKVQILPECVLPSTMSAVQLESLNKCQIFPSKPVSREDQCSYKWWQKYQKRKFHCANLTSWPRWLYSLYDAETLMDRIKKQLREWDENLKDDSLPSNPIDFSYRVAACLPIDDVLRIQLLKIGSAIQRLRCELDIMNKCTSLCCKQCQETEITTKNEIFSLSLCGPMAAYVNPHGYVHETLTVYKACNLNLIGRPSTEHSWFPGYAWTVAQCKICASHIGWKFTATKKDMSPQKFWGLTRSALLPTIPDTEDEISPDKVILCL
Sequence of hCereblon(M1-L442)_hDDB1(M1-H1140) (Q16531 whole entry partner): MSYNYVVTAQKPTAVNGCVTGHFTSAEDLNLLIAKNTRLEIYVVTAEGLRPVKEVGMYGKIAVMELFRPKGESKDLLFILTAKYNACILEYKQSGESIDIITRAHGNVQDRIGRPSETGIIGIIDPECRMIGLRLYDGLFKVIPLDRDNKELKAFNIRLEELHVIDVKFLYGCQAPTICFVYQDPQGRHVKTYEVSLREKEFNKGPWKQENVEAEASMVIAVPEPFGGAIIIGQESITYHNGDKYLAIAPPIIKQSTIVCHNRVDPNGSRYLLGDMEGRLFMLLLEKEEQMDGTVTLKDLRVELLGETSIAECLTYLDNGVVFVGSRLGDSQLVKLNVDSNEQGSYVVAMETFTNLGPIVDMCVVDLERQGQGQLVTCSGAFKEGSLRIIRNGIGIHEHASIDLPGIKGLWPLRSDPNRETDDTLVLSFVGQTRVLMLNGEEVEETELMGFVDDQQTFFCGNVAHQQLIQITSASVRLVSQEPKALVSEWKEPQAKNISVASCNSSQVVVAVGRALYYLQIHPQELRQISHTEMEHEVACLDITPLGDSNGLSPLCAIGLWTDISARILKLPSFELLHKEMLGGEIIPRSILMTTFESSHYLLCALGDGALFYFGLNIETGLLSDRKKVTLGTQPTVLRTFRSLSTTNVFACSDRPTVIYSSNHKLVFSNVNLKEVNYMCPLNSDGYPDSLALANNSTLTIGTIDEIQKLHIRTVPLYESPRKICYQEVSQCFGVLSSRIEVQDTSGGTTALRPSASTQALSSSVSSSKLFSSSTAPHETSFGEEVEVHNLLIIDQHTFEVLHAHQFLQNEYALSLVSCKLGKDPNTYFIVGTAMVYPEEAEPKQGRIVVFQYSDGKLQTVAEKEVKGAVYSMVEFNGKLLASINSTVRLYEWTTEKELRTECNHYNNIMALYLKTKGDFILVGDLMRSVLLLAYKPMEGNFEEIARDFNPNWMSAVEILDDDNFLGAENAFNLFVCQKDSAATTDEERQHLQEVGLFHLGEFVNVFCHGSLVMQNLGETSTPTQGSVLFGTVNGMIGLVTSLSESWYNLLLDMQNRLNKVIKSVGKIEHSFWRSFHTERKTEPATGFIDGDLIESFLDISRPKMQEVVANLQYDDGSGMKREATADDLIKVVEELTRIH

As to `O=C1CC[C@H](NC(=O)Cc2cccnc2)C(=O)N1` [Example 61, (S)-N-(2,6-Dioxopiperidin-3-yl)-2-(pyridin-3-yl)acetamide], the Kd came out at 967 nM.
For `CN(C(=O)N1CCc2cccnc21)C1CCC(=O)NC1=O` (centres unmarked) [Example 62, N-(2,6-Dioxopiperidin-3-yl)-N-methyl-2,3-dihydro-1H-pyrrolo[2,3-b]pyridine-1-carboxamide], the Kd is 29 nM.
For `O=C1CC[C@@H](NC(=O)Cc2cccnc2)C(=O)N1` [Example 63, (R)-N-(2,6-Dioxopiperidin-3-yl)-2-(pyridin-3-yl)acetamide], the Kd is 19 nM.
Next, `O=C1CC[C@@H](NC(=O)N2CCCc3cccnc32)C(=O)N1` [Example 64, (R)-N-(2,6-Dioxopiperidin-3-yl)-3,4-dihydro-1,8-naphthyridine-1(2H)-carboxamide]: 641 nM; `CC(=O)Nc1ccc(CC(=O)N[C@H]2CCC(=O)NC2=O)cc1` [Example 65, (S)-2-(4-Acetamidophenyl)-N-(2,6-dioxopiperidin-3-yl)acetamide]: 23 nM; `CC(=O)Nc1ccc(CC(=O)N[C@@H]2CCC(=O)NC2=O)cc1` [Example 66, (R)-2-(4-Acetamidophenyl)-N-(2,6-dioxopiperidin-3-yl)acetamide]: 86 nM.
Next, `CC(=O)Nc1cccc(CC(=O)N[C@@H]2CCC(=O)NC2=O)c1` [Example 67, (R)-2-(3-Acetamidophenyl)-N-(2,6-dioxopiperidin-3-yl)acetamide]: 3 nM; `CC(=O)Nc1cccc(CC(=O)N[C@H]2CCC(=O)NC2=O)c1` [Example 68, (S)-2-(3-Acetamidophenyl)-N-(2,6-dioxopiperidin-3-yl)acetamide]: 60 nM.
On to `O=C1CC[C@H](NC(=O)Cc2ccc3c(c2)CC(=O)N3)C(=O)N1` [Example 69, (S)-N-(2,6-Dioxopiperidin-3-yl)-2-(2-oxoindolin-5-yl)acetamide], for which the Kd came out at 15 nM.
As to `O=C1CC[C@@H](NC(=O)Cc2ccc3c(c2)CC(=O)N3)C(=O)N1` [Example 70, (R)-N-(2,6-Dioxopiperidin-3-yl)-2-(2-oxoindolin-5-yl)acetamide], the Kd came out at 3 nM.
For the molecule `Cn1nc(C(=O)N[C@H]2CCC(=O)NC2=O)c2c1CCN(C(=O)OC(C)(C)C)C2` [Example 71, tert-Butyl (S)-3-((2,6-dioxopiperidin-3-yl)carbamoyl)-1-methyl-1,4,6,7-tetrahydro-5H-pyrazolo[4,3-c]pyridine-5-carboxylate], the Kd turned out to be 4 nM.
Next, `Cn1nc(C(=O)N[C@H]2CCC(=O)NC2=O)c2c1CCNC2` [Example 72, (S)-N-(2,6-Dioxopiperidin-3-yl)-1-methyl-4,5,6,7-tetrahydro-1H-pyrazolo[4,3-c]pyridine-3-carboxamide]: 194 nM; `CN1C(=O)CCC(NC(=O)[C@H]2CCCc3ccccc32)C1=O` (stereo partly drawn) [Example 73, (1S)-N-(1-Methyl-2,6-dioxopiperidin-3-yl)-1,2,3,4-tetrahydronaphthalene-1-carboxamide]: 28 nM.
Regarding `Cc1sc2c(c1C)C(c1ccc(Cl)cc1)=N[C@@H](CC(=O)NCCCCCC(=O)N1CC[C@H](C(=O)N[C@H]3CCC(=O)NC3=O)c3ccccc31)c1nnc(C)n1-2` [Example A, (4S)-1-[6-[[2-[(9S)-7-(4-Chlorophenyl)-4,5,13-trimethyl-3-thia-1,8,11,12-tetrazatricyclo[8.3.0.02,6]trideca-2(6),4,7,10,12-pentaen-9-yl]acetyl]amino]hexanoyl]-N-[(3S)-2,6-dioxo-3-piperidyl]-3,4-dihydro-2H-quinoline-4-carboxamide], the Kd came to 10 nM.

Values taken from US11802131B2, “Glutarimides for medical treatment” (C4 Therapeutics, Inc., priority 2017, dated 2023).
